Columns and labels:
[1] = system: Wnt/β-catenin signal transduction (β-catenin activity) in HEK293 cell line; assay: Cell based Wnt agonist screening system (Tcf/Lef firefly luciferase reporter) in HEK293 cell line; design: species or system human
From the text: (§1) Two kinds of human cancer cell lines HEK293 and SW480 were used to determine the ex vivo activity of the compounds according to one exemplary embodiment of the present invention.
(§2) In order to determine the activity of the wnt/β-catenin signal transduction in each cancer cell line, the present inventors introduced a gene as shown in FIG. 1 into cells, the gene having binding sites (5× TCFs) of Tcf/Lef transcription regulation protein to which β-catenin binds and having a firefly fluorescent protein (firefly luciferase) as a marker that can determine the activity of the Tcf/Lef transcription regulation protein. Then, the present inventors constructed a cell based Wnt agonist screening system by treating the gene-introduced cells with G418 to obtain a single clone of a cell line whose Tcf/Lef transcription regulation protein is continuously expressed due to the introduction of the gene. […]
(§3) When the prepared cell line was treated with lithium chloride (LiCl) that is a positive control in the cell based Wnt agonist screening system as the control for determining the Wnt agonist activity of the isoxazole derivative according to one exemplary embodiment of the present invention, an expression level of the fluorescent protein was measured, and plotted in a graph as shown in FIG. 3. […]

[2] = system: Wnt/β-catenin signal transduction (β-catenin activity) in SW480 cell line; assay: Cell based Wnt agonist screening system (Tcf/Lef firefly luciferase reporter) in SW480 cell line; design: species or system human; settings: Conc. 20000 μM, control that defines 100%
From the text: as §1, §2, §3

SMILES | Relative Max. Activity (%) ([1]; Conc. 20000 μM, control that defines 100%) | Relative Max. Activity (%) [2] [%] | Emax at 120 µM ([1]; Homo sapiens, Conc. 120 μM, 24-hour treatment, relative to LiCl 20 mM = 100%, read-out: Relative Max. Activity (%)) [%]
[Cl-].[Li+] [LiCl, lithium chloride, reference compound] | 100 | 100 | 
Nc1ccc(-c2cc(C(=O)NCCCn3ccnc3)no2)cc1 [Derivative 48, 5-(4-amino-phenyl)-isoxazole-3-carboxylic acid (3-imidazol-1-yl-propyl)-amide] |  |  | 246

Reference: patent US8518978B2, “Pharmaceutical composition for prevention and treatment of restenosis comprising isoxazole derivatives” (SK Biopharmaceuticals Co., Ltd., priority 2007, dated 2013)
